{"source": "patent US9499601B2", "about": "“Molecular probe for sphingolipids” (Agency for Science, Technology and Research, priority 2006, dated 2016)", "molecules": {"B1": {"name": "Lysenin: sphingomyelin-binding protein toxin from earthworm (protein, UniProt O18423 1-297, looked up)", "Lysenin": "MSAKAAEGYEQIEVDVVAVWKEGYVYENRGSTSVDQKITITKGMKNVNSETRTVTATHSIGSTISTGDAFEIGSVEVSYSHSHEESQVSMTETEVYESKVIEHTITIPPTSKFTRWQLNADVGGADIEYMYLIDEVTPIGGTQSIPQVITSRAKIIVGRQIILGKTEIRIKHAERKEYMTVVSRKSWPAATLGHSKLFKFVLYEDWGGFRIKTLNTMYSGYEYAYSSDQGGIYFDQGTDNPKQRWAINKSLPLRHGDVVTFMNKYFTRSGLCYDDGPATNVYCLDKREDKWILEVVG"}}, "key": {"[1]": {"system": "neuroblastoma cells", "assay": "Live-cell uptake after glycosphingolipid depletion with Fumonisin B1", "assay_type": "cell-based, human", "settings": "10 μM FB1"}, "[2]": {"system": "detergent resistant membrane fractions from human neuroblastomas, SH-SY5Y", "assay": "Dot blot binding to isolated DRM density-gradient fractions", "settings": "fractions 1-12, 1 top (detergent insoluble)"}, "[3]": {"assay": "Lipid-protein overlay (fat blot)", "assay_type": "binding", "settings": "Sphingostrips, relatively low amounts of lipids (100 nmole equivalents)"}, "[4]": {"system": "liposomes of raft-like composition (SM:Ch:POPC) with or without GM1, GD1a, GCB; POPC liposomes", "assay": "Liposome binding, fluorescence retained after centrifugal filtration", "settings": "control"}, "[5]": {"system": "SH-SY5Y neuroblastoma", "assay": "Live-cell uptake under cholesterol depletion (MβCD)", "assay_type": "cell-based, human", "settings": "only after 2 h of cholesterol depletion"}, "[6]": {"assay": "Lipid-protein overlay (fat blot)", "assay_type": "binding"}, "[7]": {"assay": "Lipid-protein overlay (fat blot)", "assay_type": "binding", "remark": "listed apart in the source"}, "[8]": {"assay": "Lipid-protein overlay (fat blot)", "assay_type": "binding", "remark": "listed apart in the source"}, "[9]": {"assay": "Lipid-protein overlay (fat blot)", "assay_type": "binding, bovine"}, "[10]": {"system": "Drosophila c6 neuronal cells", "assay": "Labelling of Drosophila c6 neuronal cells with SBD, SBD* and SBD^scr peptides", "assay_type": "cell-based"}, "[11]": {"system": "Drosophila c6 cells", "assay": "Cholesterol depletion measured with Amplex Red Cholesterol Assay kit", "assay_type": "cell-based", "settings": "for reduction of cholesterol: 10 mM, 30 min, whole cell lysates", "protocol": "Cholesterol depletion and overload: Cells were incubated in 4 mM or 10 mM Methyl-β-cyclo-dextrin (MβCD) (Sigma, USA) for 30 min in serum-free medium, and washed. AMPLEX RED™ Cholesterol Assay kit (Invitrogen) was used to measure cholesterol concentrations in cell extracts before OPTIPREP™ gradient formation and later on DRM fractions generated. For cholesterol excess, 10 mM MβCD-cholesterol-complexes were prepared as described previously and incubated with cells at 25° C. for 30 min before labelling. After treatment cells were further incubated in complete medium with FBS.\nDrug treatments: For cholesterol depletion cells were incubated in 10 mM Methyl-b-cyclo-dextrin (MbCD) (Sigma, USA) for 30 min in serum-free medium, and washed. AMPLEX RED™ Cholesterol Assay kit (Invitrogen) was used to measure cholesterol concentrations in cell extracts before OPTIPREP™ gradient formation and later on DRM fractions generated.\nTreatments that inhibit cholesterol synthesis or that remove cholesterol from membranes are known to disrupt lipid rafts. Methyl-β-cyclo-dextrin (MβCD) was used to deplete Drosophila c6 (FIG. 13) and neuroblastoma cells (data not shown) of cholesterol and related sterols (see Methods), and looked at the effect on SBD binding. First, the effectiveness of the MβCD treatment was tested by measuring total cholesterol levels using the AMPLEX RED™ kit (Invitrogen). On c6 cells, cholesterol was reduced by 42% after 30 min, and the distribution of the remaining cholesterol became more uniform across the density gradient (FIG. 13C)."}, "[12]": {"settings": "peptide at higher concentrations (20 μM)"}, "[13]": {"settings": "peptide at higher concentrations (20 μM), listed as mutated peptide"}, "[14]": {"settings": "spotted strips, 1000-2000 nmole equivalents lipid"}, "[15]": {"settings": "spotted strips, 1000-2000 nmole equivalents lipid, listed as scrambled version of the peptide"}}, "note": "Where no end group is shown, it is not given here.", "data": [{"molecule": "CtxB [reference compound]", "values": [{"measurement": "uptake after Fumonisin B1 (FB1) treatment", "setting": "[1]", "result": "not affected"}, {"measurement": "binding to density-gradient fractions (dot blot)", "setting": "[2]", "result": "typical two-peak distribution"}, {"measurement": "interaction with GM1", "setting": "[3]", "result": "recognize"}]}, {"molecule": "CtxB-Alexa594", "values": [{"measurement": "retention on GM1 liposomes compared with GD1a or no glycolipid", "setting": "[4]", "result": "retained more strongly"}, {"measurement": "uptake under cholesterol depletion", "setting": "[5]", "result": "reduced rate of uptake"}]}, {"molecule": "DAEFAHDSGAEVHHQELVFFAEDVG [SBD**-myc]", "values": [{"measurement": "interaction with GD1b", "setting": "[6]; peptide at low concentrations", "result": "very weakly"}, {"measurement": "interaction with GD1a", "setting": "[7]; peptide at 5 μM", "result": "fails to show any interaction"}, {"measurement": "interaction with GD1a", "setting": "[7]; [12]", "result": "only weakly interacts"}, {"measurement": "interaction with GD1a", "setting": "[7]; [13]", "result": "bound very weakly"}, {"measurement": "interaction with SM", "setting": "[8]; peptide at 5 μM", "result": "fails to show any interaction"}, {"measurement": "interaction with SM", "setting": "[8]; [12]", "result": "fails to show any interaction"}, {"measurement": "interaction with SM", "setting": "[8]; [13]", "result": "not"}, {"measurement": "interaction with galactocerebrosides", "setting": "[9]; peptide at low concentrations", "result": "interacted"}]}, {"molecule": "FYHDESEFGHAVEQFGRDVEAVHDL (not fully specified; also: fluorophore, identity and site not given here) [SBD^scr]", "values": [{"measurement": "internalized punctae (number and intensity)", "setting": "[10]; Oregon Green conjugates, 10 μM each", "result": "much reduced"}, {"measurement": "concentration needed for binding to cells", "setting": "[10]; c6 cells (FIG. 1B)", "result": "≥ 50", "unit": "µM"}]}, {"molecule": "FYHDESEFGHAVEQFGRDVEAVHDL [SBD-scr-myc]", "values": [{"measurement": "interaction with GD1b", "setting": "[6]; [14]", "result": "bind"}, {"measurement": "interaction with GD1b", "setting": "[6]; [15]", "result": "interacted approximately as well"}, {"measurement": "interaction with GM1", "setting": "[3]; listed as SBD scr-myc", "result": "interact"}, {"measurement": "interaction with GM1", "setting": "[3]; listed as SBD-scr", "result": "showed signal"}, {"measurement": "interaction with GD1a", "setting": "[7]; [14]", "result": "bind"}, {"measurement": "interaction with GD1a", "setting": "[7]; [15]", "result": "interacted approximately as well"}, {"measurement": "interaction with sphingomyelin", "setting": "[8]; [14]", "result": "interacted approximately as well"}, {"measurement": "interaction with galactocerebrosides", "setting": "[9]; [14]", "result": "bind"}]}, {"molecule": "Methyl-β-cyclo-dextrin [MβCD]", "values": [{"measurement": "reduction of cholesterol", "setting": "[11]", "result": 42, "unit": "%"}, {"measurement": "reduction of cholesterol", "setting": "[11]; listed as M[…]CD", "result": "over 40%"}, {"measurement": "depletion of total cholesterol", "setting": "[11]; Example 1", "result": 40, "unit": "%"}]}, {"molecule": "Transferrin-Alexa594: marker of clathrin-mediated uptake", "values": [{"measurement": "uptake after Fumonisin B1 (FB1) treatment", "setting": "[1]", "result": "not significantly altered"}, {"measurement": "uptake after Fumonisin B1 (FB1) treatment", "setting": "[1]; listed as Tfr", "result": "essentially unaltered"}]}, {"molecule": "B1", "values": [{"measurement": "binding to density-gradient fractions (dot blot)", "setting": "[2]", "result": "bound to non-DRM fractions"}, {"measurement": "interaction with Sphingomyelin (spot 5)", "setting": "[8]; Sphingostrips", "result": "recognize"}]}]}
